Data published in patent US20090117083A1, “IMMUNOMODULATORY ALKALOIDS” (M N L PHARMA LIMITED, priority 2004, published 2009).
Like-named read-outs stand apart in the source and are kept apart here.

Experiments:
[1] = biological target: T1, α-D-mannosidase (Canavalia ensiformis, UniProt C0HJB3); experiment: Glycosidase inhibition: α-D-mannosidase; assay type: biochemical, Jack beans (Canavalia ensiformis)
T1 construct: purchased Sigma
Experimental: All enzymes were purchased from Sigma, as were the appropriate p-nitrophenyl substrates. Assays were carried out in microtitre plates. Enzymes were assayed in 0.1M citric acid/0.2M di-sodium hydrogen phosphate (McIlvaine) buffers at the optimum pH for the enzyme. All assays were carried out at 20° C.
Endpoint absorbances were read at 405 nm with a Biorad microtitre plate reader (Benchmark). Water was substituted for the inhibitors in the blanks.

[2] = tested on: B16G/F10 melanoma cells; experiment: B16/F10 melanoma lung colonies in mice; assay type: in vivo, C57BL/6 mice
Experimental: There were 5 treatment groups in the study, with 6 mice arbitrarily allocated to each group. The treatment groups were as follows:
The dose volume was the daily intake for all animals. Test substances were administered to mice in Groups 2, 3, 4 and 5, as solutions in sterile water for 41 h 32 min prior to tumour cell injection (Day 0 is the day of tumour cell injection).
Mice were injected intravenously, via a tail vein, with 0.1 ml of a suspension of B16G/F10 melanoma cells (approximately 1×10^5 cells/mouse) on Day 0.
All dosing solutions were prepared on the first day of dosing (Day −2) and were kept at room temperature.
Mice: Female C57BL/6 mice were supplied and delivered by Charles River UK Limited. The animals were approximately 6-8 weeks of age on arrival. The animals were acclimatized for 29 days prior to the start of the study, and the body weights at the start of dosing were in the range 18-23 g. During the study, the animals were housed in groups of up to 6 in pediatric filter-topped cages with sawdust bedding (autoclaved for sterility). The room and cages were cleaned at regular intervals each week to maintain hygiene. The mice were fed an expanded rodent diet of RM1(E) SQC (batch number 3822; Special Diets Services, Witham, UK) ad libitum and allowed access to sterilized water (N.V. Nutricia, Zoetermeer, The Netherlands). For Groups 2, 3, 4 and 5, the drinking water also contained the appropriate level of test substance for the duration of the dosing period. […] During the acclimatization and study period the temperature range in the rooms was 18-22° C. and the humidity range was 44-79%.
Tumour challenge: B18F10 murine tumour cells (Shrayer D, Bogaars H. Hearing V. J. Maizel A. & Wanebo H. Further characterization of a clinically relevant model of melanoma metastasis and an effective vaccine. Cancer Immunology, Immunotherapy 1995: 40; 277-282) were harvested from sub-confluent cultures growing in vitro, using minimum trypsination. They were washed in sterile phosphate buffered saline (PBS) and the number of viable cells determined. Cells were resuspended in sterile PBS at a concentration of […]. The mice were intravenously injected, via a tail vein, with 0.1 ml of cell suspension (i.e. approximately 1×10^5 cells/mouse) on Day 0. The mice were examined daily for signs of laboured breathing or distress due to extensive metastatic disease. Mice were exposed to the appropriate test substance for 41 h 32 min prior to tumour cell injection (from Day −2 to Day 0). Following tumour cell implant, the test substances were removed, and animals in all groups received drinking water alone for the remainder of the study.
Sampling and analysis: The animals were terminated on Day 21 (21 days after injection of the tumour cells). Blood samples were taken from 3 mice from each group on the day of termination. Animals were anaesthetized with carbon dioxide and blood samples of maximal volume taken by cardiac puncture and collected in plain tubes. Samples were left to clot at room temperature for a minimum of 1 h prior to serum removal, Serum samples were stored at approximately −70° C. prior to analysis. Immediately after performing the bleeds, the spleens were removed from the 3 selected mice. The spleens from these mice were pooled in a petri dish with approximately 3-5 ml of RPMI 1640 tissue culture medium (batch number 3092202; Invitrogen, Paisley, UK) containing 0.52% penicillin/streptomycin (Pen/Strep; batch number 44K2412; Sigma Aldrich, Poole, UK) prior to splenocyte isolation. The spleens from each group were placed in a glass homogeniser with an additional 10-15 ml of medium and homogenised until opaque. The suspension was then placed in a 50 ml centrifuge tube. On occasions when there was significant cell debris, this was allowed to settle before removing the suspension and placing in a fresh tube. The homogenate was then centrifuged at approximately 200×‘g’ for 5 min at approximately 4° C.

[3] = tested on: dendritic cells; experiment: Induction of IL-12 secretion in dendritic cells (ELISA); assay type: cell-based, BALB/c mice; details: 50 μg/ml
[4] = tested on: α-D-glucosidase; experiment: Glycosidase inhibition: α-D-glucosidase, Bacillus; assay type: biochemical, Bacillus stearothermophilus; details: 1 mg/ml
Experimental: (§1) All enzymes were purchased from Sigma, as were the appropriate p-nitrophenyl substrates. Assays were carried out in microtitre plates. Enzymes were assayed in 0.1M citric acid/0.2M di-sodium hydrogen phosphate (McIlvaine) buffers at the optimum pH for the enzyme. All assays were carried out at 20° C. For screening assays the incubation assay consisted of 10 μl of enzyme solution, 10 μl of inhibitor solution (made up in water) and 50 μl of the appropriate 5 mM p-nitrophenyl substrate (3.57 mM final conc.) made up in McIlvaine buffer at the optimum pH for the enzyme.
(§2) The reactions were stopped with 0.4M glycine (pH 10.4) during the exponential phase of the reaction, which was determined at the beginning of the assay using blanks with water, which were incubated for a range of time periods to measure the reaction rate using 5 mM substrate solution. Endpoint absorbances were read at 405 nm with a Biorad microtitre plate reader (Benchmark). Water was substituted for the inhibitors in the blanks.

[5] = tested on: N-acetyl-β-D-glucosaminidase; experiment: Glycosidase inhibition: N-acetyl-β-D-glucosaminidase; assay type: biochemical, Bovine; details: 1 mg/ml
Experimental: as §1, §2

[6] = biological target: T2, α-L-fucosidase (Bos taurus, UniProt Q2KIM0); experiment: Glycosidase inhibition: α-L-fucosidase; assay type: biochemical, Bovine; details: 1 mg/ml
T2 construct: purchased Sigma
T2 sequence (Q2KIM0 23-468): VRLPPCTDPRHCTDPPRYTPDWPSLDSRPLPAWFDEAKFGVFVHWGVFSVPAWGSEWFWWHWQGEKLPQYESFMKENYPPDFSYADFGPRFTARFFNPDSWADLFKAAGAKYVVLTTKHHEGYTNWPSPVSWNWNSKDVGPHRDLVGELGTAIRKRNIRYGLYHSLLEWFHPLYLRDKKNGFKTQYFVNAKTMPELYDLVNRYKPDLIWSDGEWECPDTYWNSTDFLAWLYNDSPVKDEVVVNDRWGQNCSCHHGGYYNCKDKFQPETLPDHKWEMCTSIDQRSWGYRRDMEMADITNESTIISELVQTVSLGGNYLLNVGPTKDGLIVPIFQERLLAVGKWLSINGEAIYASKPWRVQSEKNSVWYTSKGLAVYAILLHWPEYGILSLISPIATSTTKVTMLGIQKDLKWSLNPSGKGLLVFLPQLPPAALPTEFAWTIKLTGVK
Experimental: as §1, §2

[7] = tested on: Naringinase; experiment: Glycosidase inhibition: Naringinase; assay type: biochemical, Penecillium decumbens; details: 1 mg/ml
Experimental: as §1, §2

[8] = biological target: T3, α-D-galactosidase (Coffea arabica, UniProt Q42656); experiment: Glycosidase inhibition: α-D-galactosidase; assay type: biochemical, Green coffee beans (Coffea sp.)
T3 construct: purchased Sigma
Experimental: as §1, §2

[9] = tested on: B16-F10 tumour cells; experiment: Control of lung metastasis in mice (B16-F10); assay type: in vivo, C57/bl6 mice; details: 50 mg/kg s/c on days 2 and 4; lungs on day 14
Experimental: Mice (C57/bl6 under i/p ketamine anaesthesia) were challenged i/v (tail vein) with 5×10^4 B16-F10 tumour cells in a final volume of 100 μl per mouse on day 0. Test compounds (50 mg/kg in 200 μl sterile non-pyrogenic saline) were administered sic (right flank) on days 2 and 4. On day 14 the mice were sacrifices and the lungs dissected and stained in Indian ink solution (150 ml bidistilled water, 30 ml India Ink, 4 drops NH4OH) for 10 minutes then fixed for at least 24 hr in Fakete's solution (90 ml 37% formaldehyde, 900 ml 70% EtOH and 45 ml glacial acetic acid). The metastases in the stained and fixed lungs could then be visualized, counted and photographed.

[10] = tested on: β-D-glucosidase; experiment: Glycosidase inhibition: β-D-glucosidase, almond; assay type: biochemical, Almonds (Prunus sp.); details: 1 mg/ml
Experimental: as §1, §2

[11] = biological target: T4, α-D-glucosidase (Oryza sativa subsp. japonica, UniProt Q653V7); experiment: Glycosidase inhibition: α-D-glucosidase, rice; assay type: biochemical, rice (Oryza sativa); details: 1 mg/ml
T4 construct: purchased Sigma
Experimental: as §1, §2

[12] = biological target: T5, α-D-glucosidase (Saccharomyces cerevisiae, UniProt P53341); experiment: Glycosidase inhibition (p-nitrophenyl substrate): α-D-glucosidase, yeast; assay type: biochemical, Saccharomyces cerevisiae (Baker's yeast); details: 1 mg/ml; read-out: % inhibition, α-gluc (yeast)
T5 construct: purchased Sigma
Experimental: as §1, §2

[13] = tested on: β-D-galactosidase; experiment: Glycosidase inhibition: β-D-galactosidase; assay type: biochemical, Bovine; details: 1 mg/ml
Experimental: as §1, §2

T1 sequence (C0HJB3 whole entry): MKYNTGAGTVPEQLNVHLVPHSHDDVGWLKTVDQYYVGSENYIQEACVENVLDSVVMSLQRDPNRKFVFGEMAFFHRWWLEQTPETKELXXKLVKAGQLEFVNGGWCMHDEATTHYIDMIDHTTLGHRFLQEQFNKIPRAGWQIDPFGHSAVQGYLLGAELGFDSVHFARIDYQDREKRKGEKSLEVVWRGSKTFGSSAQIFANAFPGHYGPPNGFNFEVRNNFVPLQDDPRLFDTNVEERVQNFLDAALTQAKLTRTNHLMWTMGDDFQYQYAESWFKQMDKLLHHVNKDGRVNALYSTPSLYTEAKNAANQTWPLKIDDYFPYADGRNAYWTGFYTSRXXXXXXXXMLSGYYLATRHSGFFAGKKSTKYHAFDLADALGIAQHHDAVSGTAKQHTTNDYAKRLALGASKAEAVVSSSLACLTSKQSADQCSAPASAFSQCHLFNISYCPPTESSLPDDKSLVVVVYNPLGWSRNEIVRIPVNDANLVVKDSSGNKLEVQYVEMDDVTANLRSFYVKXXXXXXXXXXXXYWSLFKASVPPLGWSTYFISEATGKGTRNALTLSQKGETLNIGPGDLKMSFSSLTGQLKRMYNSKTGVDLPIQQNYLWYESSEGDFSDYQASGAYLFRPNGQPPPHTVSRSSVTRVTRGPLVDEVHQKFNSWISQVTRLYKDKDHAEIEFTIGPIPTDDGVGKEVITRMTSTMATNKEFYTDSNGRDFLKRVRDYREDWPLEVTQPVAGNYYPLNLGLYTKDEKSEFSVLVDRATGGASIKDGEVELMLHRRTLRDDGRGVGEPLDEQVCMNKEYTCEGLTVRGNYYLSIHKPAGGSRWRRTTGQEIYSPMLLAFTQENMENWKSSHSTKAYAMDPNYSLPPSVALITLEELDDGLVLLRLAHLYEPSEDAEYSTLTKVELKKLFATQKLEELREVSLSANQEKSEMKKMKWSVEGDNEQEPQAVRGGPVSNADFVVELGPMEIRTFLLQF
T3 sequence (Q42656 16-378): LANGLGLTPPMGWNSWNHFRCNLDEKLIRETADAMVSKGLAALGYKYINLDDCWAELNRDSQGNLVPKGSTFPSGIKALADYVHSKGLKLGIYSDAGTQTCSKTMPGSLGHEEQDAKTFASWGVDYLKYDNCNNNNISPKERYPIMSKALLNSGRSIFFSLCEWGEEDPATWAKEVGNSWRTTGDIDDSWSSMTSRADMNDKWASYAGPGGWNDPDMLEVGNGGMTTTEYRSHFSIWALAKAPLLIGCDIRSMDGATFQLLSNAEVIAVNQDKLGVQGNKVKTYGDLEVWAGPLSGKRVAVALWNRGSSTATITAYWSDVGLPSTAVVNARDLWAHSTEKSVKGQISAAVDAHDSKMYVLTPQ
T4 sequence (Q653V7 34-885): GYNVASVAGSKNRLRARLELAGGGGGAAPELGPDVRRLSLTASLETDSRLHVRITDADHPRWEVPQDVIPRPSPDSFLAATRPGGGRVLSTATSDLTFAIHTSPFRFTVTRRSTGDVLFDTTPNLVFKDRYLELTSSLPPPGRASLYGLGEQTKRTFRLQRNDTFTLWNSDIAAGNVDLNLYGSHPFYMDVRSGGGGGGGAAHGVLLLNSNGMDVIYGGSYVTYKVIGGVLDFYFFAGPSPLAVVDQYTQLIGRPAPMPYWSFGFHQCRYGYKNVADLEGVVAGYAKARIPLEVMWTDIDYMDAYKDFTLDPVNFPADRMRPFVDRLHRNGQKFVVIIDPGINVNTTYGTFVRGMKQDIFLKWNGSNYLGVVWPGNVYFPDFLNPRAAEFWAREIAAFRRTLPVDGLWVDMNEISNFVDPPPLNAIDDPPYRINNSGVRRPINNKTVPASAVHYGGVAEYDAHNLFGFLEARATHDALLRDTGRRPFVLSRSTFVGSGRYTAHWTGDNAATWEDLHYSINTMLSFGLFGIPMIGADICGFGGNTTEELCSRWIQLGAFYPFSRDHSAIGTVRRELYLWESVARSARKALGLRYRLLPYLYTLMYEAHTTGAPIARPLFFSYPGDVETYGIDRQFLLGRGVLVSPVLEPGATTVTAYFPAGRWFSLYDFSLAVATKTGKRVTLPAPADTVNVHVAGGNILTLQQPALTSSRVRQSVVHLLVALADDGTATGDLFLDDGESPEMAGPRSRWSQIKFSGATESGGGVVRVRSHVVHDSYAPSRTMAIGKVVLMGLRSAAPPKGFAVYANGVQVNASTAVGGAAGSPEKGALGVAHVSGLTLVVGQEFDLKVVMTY
T5 sequence (P53341 whole entry): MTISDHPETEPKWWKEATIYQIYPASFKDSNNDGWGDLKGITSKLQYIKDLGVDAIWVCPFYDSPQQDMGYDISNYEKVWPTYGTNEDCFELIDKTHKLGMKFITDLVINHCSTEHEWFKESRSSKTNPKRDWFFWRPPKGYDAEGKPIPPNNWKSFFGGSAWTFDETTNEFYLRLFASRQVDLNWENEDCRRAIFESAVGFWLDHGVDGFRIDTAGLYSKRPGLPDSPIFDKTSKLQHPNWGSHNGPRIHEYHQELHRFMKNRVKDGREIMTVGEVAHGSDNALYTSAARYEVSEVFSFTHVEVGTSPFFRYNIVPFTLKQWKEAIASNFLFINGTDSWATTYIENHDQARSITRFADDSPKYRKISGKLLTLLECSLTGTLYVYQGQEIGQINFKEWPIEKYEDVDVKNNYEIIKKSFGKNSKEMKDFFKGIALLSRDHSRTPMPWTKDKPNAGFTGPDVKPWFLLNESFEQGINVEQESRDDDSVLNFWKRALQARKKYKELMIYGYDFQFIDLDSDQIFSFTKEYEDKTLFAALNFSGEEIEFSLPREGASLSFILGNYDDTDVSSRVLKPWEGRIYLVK

| Compound | inhibition at 1000 µg/mL ([1]; read-out: % inhibition, mannosidase) [%] | Colony Count ([2]; 3 μg/ml in drinking water before tumour cell injection, Day 21, mean ± s.e.m.) | % Reduction ([2]; 3 μg/ml in drinking water, versus vehicle) [%] | induction of IL-12 secretion [3] | % inhibition, gluc (Bacillus) [4] [%] | % inhibition, N-acetyl-β-gluc [5] [%] | inhibition at 1000 µg/mL ([6]; read-out: % inhibition, fucosidase) [%] | % inhibition, Naringinase [7] [%] | inhibition at 1000 µg/mL ([8]; read-out: % inhibition, galactosidase) [%] | Metastatic morphology [9] | % inhibition, glucosidase [10] [%] | inhibition at 1000 µg/mL ([11]; read-out: % inhibition, gluc (rice)) [%] | % inhibition, α-gluc (Bacillus) [4] [%] | inhibition at 1000 µg/mL ([6]; read-out: % inhibition, α-fucosidase) [%] | inhibition at 1000 µg/mL ([1]; read-out: % inhibition, α-mannosidase) [%] | inhibition at 1000 µg/mL [12] [%] | inhibition at 1000 µg/mL ([8]; 1 mg/ml, read-out: % inhibition, α-galactosidase) [%] | % inhibition, β-glucosidase [10] [%] | % inhibition, β-galactosidase [13] [%] | inhibition at 1000 µg/mL ([11]; read-out: % inhibition, α-gluc (rice)) [%] |
| --- | --- | --- | --- | --- | --- | --- | --- | --- | --- | --- | --- | --- | --- | --- | --- | --- | --- | --- | --- | --- |
| O[C@H]1[C@H]2[C@H](O)CCCN2C[C@H]1O [Swainsonine (4), Swainsonine, reference compound] | 74 | 21.33 ± 4.11 | 69 | failed to induce IL-12 secretion | – | – | – | – | – | – | – | – | – | – | – | – | – | – | – | – |
| OC[C@H]1[C@@H](O)[C@H](O)[C@H]2[C@H](O)[C@@H](O)CN21 [3-epi-casuarine (14), 3-epi-casuarine] | – | – | – | – | 12 | −1 | -2 | 21 | 4 | Metastasis restricted to apical tip of lung | 56 | 13 | – | – | – | – | – | – | – | – |
| OCCN1[C@H](CO)[C@@H](O)[C@H](O)[C@H]1CO [N-hydroxyethyl DMDP, N-hydroxyethyl-2,5-dihydroxymethyl-3,4-dihydroxypyrrolidine] | – | – | – | – | – | 13 | – | 22 | – | Metastasis restricted to apical tip of lung | – | – | 85 | -4 | 11 | 56 | 7 | 64 | 73 | 43 |
